Experimental findings from ChEMBL document CHEMBL5150009, “Specific Inhibitor of Placental Alkaline Phosphatase Isolated from a DNA-Encoded Chemical Library Targets Tumor of the Female Reproductive Tract” (J Med Chem, 2021) are described below.

Test [1] addresses T1, Alkaline phosphatase, placental type (Homo sapiens, UniProt P05187). Put plainly: Inhibition of human PLAP using biotinylated CDP as substrate incubated for 30 mins by chemiluminescent assay.
Test [2] addresses T2, Alkaline phosphatase, tissue-nonspecific isozyme (Homo sapiens) (UniProt P05186).
T2 sequence (whole entry): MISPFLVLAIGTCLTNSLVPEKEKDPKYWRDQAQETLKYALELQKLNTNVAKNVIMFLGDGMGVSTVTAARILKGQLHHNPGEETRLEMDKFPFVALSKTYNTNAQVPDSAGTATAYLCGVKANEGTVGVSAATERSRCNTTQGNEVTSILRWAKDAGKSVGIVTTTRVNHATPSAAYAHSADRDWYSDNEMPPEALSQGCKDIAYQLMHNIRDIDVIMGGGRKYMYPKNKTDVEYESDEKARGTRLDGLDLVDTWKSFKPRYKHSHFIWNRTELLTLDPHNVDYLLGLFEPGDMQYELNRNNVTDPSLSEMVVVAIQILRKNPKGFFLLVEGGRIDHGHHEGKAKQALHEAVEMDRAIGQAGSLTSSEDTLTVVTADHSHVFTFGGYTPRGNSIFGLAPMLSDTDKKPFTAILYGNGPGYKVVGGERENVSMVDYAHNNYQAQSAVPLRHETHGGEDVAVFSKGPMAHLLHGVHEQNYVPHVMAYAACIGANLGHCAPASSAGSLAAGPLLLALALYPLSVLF
Description: Inhibition of TNAP (unknown origin) at 20 uM using biotinylated CDP as substrate incubated for 30 mins by chemiluminescent assay.

The target in test [3] is T2, Alkaline phosphatase, tissue-nonspecific isozyme (Homo sapiens). Put plainly: Binding affinity to TNAP (unknown origin) incubated for 15 mins by Fluorescence polarization assay.
The target of test [4] is T1, Alkaline phosphatase, placental type. Description: Binding affinity to human PLAP incubated for 15 mins by Fluorescence polarization assay. (In general: Fluorescence polarisation rises when a labelled molecule tumbles more slowly, as on binding a larger partner.)
Test [5] in a line: Inhibition of human recombinant PLAP using biotinylated CDP as substrate incubated for 30 mins by chemiluminescent assay.
For test [6], the system named is HeLa. Description: Inhibition of human recombinant PLAP expressed in human HeLa cells assessed as fluorescence intensity at 100 nM incubated for 1 hr by FACS analysis. It counts as cell-based. On the technique in general: A flow cytometer gives signals particle by particle.
A further test concerns OVCAR-3. Put plainly: Inhibition of human recombinant PLAP expressed in human OVCAR-3 cells assessed as fluorescence intensity at 100 nM incubated for 1 hr by FACS based flow cytometry analysis. In kind it is cell-based.
For test [7], the system named is SK-OV-3. Description: Inhibition of human recombinant PLAP expressed in human SK-OV-3 cells assessed as fluorescence intensity at 100 nM incubated for 1 hr by FACS based flow cytometry analysis. It counts as cell-based.
The subject of test [8] is SK-OV-3. Put plainly: Inhibition of human recombinant PLAP expressed in human SK-OV-3 cells assessed as localization of cell on membrane at 120 nM incubated for 15 mins by Hoechst 33342 staining based laser microscopic analysis.
Test [9] concerns HeLa. Description: Inhibition of human recombinant PLAP expressed in human HeLa cells assessed as localization of cell on membrane at 120 nM incubated for 15 mins by Hoechst 33342 staining based laser microscopic analysis.
The subject of test [10] is HeLa. Put plainly: Antitumor activity against human HeLa cells xenografted in […] nu/nu mouse assessed as cell accumulation in heart at 2.5 micromol/kg, iv incubated for 1 hr by microscopic analysis. It counts as functional, organism-based. The note with it: dose 2.5 µmol/kg. (In general: Xenograft models place foreign cells or tissue in a host animal.)
Test [11] relates to HeLa. Description: Antitumor activity against human HeLa cells xenografted in […] nu/nu mouse assessed as cell accumulation in liver at 2.5 micromol/kg, iv incubated for 1 hr by microscopic analysis. It counts as functional, organism-based. As to conditions: dose 2.5 µmol/kg.
In test [12] the test system is HeLa. Description: Antitumor activity against human HeLa cells xenografted in […] nu/nu mouse assessed as cell accumulation in intestine at 2.5 micromol/kg, iv incubated for 1 hr by microscopic analysis. In kind it is functional, organism-based. The note with it: dose 2.5 µmol/kg.
Test [13] concerns HeLa. Put plainly: Antitumor activity against human HeLa cells xenografted in […] nu/nu mouse assessed as cell accumulation in spleen at 2.5 micromol/kg, iv incubated for 1 hr by microscopic analysis. In kind it is functional, organism-based. As to conditions: dose 2.5 µmol/kg.
Test [14] concerns HeLa. Description: Antitumor activity against human HeLa cells xenografted in […] nu/nu mouse assessed as cell accumulation in lung at 2.5 micromol/kg, iv incubated for 1 hr by microscopic analysis. In kind it is functional, organism-based. The note with it: dose 2.5 µmol/kg.
The subject of test [15] is HeLa. Put plainly: Induction of cell death in human HeLa cells incubated for 72 hrs in presence of uniCAR T cells by microscopic analysis. It counts as functional, cell-based.

Activity calls are given as the source filed them. The rule behind the calls is not given here. Some results are limits rather than exact numbers.

T1 sequence (P05187 whole entry): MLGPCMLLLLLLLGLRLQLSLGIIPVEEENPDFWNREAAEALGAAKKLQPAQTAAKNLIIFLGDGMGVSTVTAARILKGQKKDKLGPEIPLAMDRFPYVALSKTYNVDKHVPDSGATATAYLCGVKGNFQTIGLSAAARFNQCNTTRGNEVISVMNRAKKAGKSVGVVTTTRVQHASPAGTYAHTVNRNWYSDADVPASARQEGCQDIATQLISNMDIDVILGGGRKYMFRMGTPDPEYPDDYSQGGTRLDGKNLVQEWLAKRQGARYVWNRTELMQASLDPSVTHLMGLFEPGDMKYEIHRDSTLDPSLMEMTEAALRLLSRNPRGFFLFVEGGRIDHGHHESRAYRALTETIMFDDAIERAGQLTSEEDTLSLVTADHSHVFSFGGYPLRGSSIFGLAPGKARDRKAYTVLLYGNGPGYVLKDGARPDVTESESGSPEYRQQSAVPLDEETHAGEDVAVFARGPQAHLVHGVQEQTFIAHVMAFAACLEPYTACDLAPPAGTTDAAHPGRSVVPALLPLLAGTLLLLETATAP

The compound `COc1c(Cl)cc(-c2cccc(C[C@@H](NC(=O)c3cc(-c4ccc(C)o4)[nH]n3)C(=O)O)c2)cc1Cl` had an IC50 in test [1] of 0.032 µM. In addition, the inhibition entry in test [2] was “Active”. Besides, the outcome in test [3] and in test [4] was Active.

On to `CC(C)(C)OC(=O)n1c(-c2ccccc2C[C@H](NC(=O)c2cnc3ccccn3c2=O)C(=O)O)cc2c(Cl)cccc21`, for which the result in test [4] was Active. In addition, in test [5], the IC50 turned out to be 4 µM.

Take `C[C@@H]1CCC[C@H](C)N1CCC(=O)N[C@@H](CCC(=O)NCC(=O)N[C@@H](CCCCN)C(N)=O)C(=O)NCCCSCc1ccc(F)cc1`: the result in test [4] was Active. The IC50 in test [5] was over 20 µM.

As for `COc1c(Cl)cc(-c2cccc(C[C@@H](NC(=O)c3cc(-c4ccc(C)o4)[nH]n3)C(=O)NCCOCCOCCNC(=S)Nc3ccc(-c4c5ccc(=O)cc-5oc5cc(O)ccc45)c(C(=O)O)c3)c2)cc1Cl`, the result in the test on HeLa [6], with OVCAR-3, in the test with SK-OV-3 [7], in the test with SK-OV-3 [8], with HeLa [9] and in the test on HeLa [10] was Active. Also, the outcome with HeLa [11], in the test on HeLa [12], in the test on HeLa [13], with HeLa [14] and in the test on HeLa [15] was Active.

Consider `COC(=O)[C@H](Cc1ccc(-c2ccc(Cl)cc2C(F)(F)F)cc1)NC(=O)CC1C(=O)Nc2cc(C)ccc21` (stereo partly drawn), for which the outcome in test [4] was Active. For the same compound, the IC50 in test [5] is 3.9 µM.

For the compound `NC(=O)CC[C@@H](C(=O)Nc1cccc(Oc2ccccc2)c1)n1cc(CNC(=O)c2ccc3ncn(CC(=O)c4ccc(O)c(O)c4)c3c2)nn1`, the result in [4] was Active. Besides, the IC50 in test [5] was determined as 0.84 µM.

For the compound `C[C@@H]1CCC[C@H](C)N1CCC(=O)N[C@@H](CCC(=O)N[C@@H](CCC(=O)O)C(=O)N[C@@H](CCCCN)C(N)=O)C(=O)NCCCSCc1ccc(F)cc1`, the result in test [4] was Active. Also, the IC50 in [5] turned out to be 16 µM.

Regarding `Cc1cc(-c2cnccn2)ccc1NC(=O)[C@H](CCC(N)=O)n1cc(CNC(=O)c2ccc3ncn(CC(=O)c4ccc(O)c(O)c4)c3c2)nn1`, the result in [4] was Active. Further, the concentration for half-maximal inhibition (IC50) in [5] stood at 2.5 µM.

Regarding `NC(=O)CC[C@H](C(=O)Nc1cccc(Oc2ccccc2)c1)n1cc(CNC(=O)c2ccc3ncn(CC(=O)c4ccc(O)c(O)c4)c3c2)nn1`, the outcome in test [4] was Active. Besides, in test [5], the 50% inhibitory concentration (IC50) worked out at 5 µM.

Consider `Cc1cc(NC(=O)[C@@H](CCC(=O)N[C@@H](CCC(=O)O)C(=O)N[C@@H](CCCCN)C(N)=O)NC(=O)CC(C)(C)CC(N)=O)ccc1Br`, for which the IC50 in test [5] was over 20 µM.

As to `Cc1ccc(NC(=O)NCC#Cc2ccc(C[C@H](NC(=O)c3nn(C)c(C)c3Br)C(=O)O)cc2)cc1`, the result in [4] was Active. Moreover, the concentration for half-maximal inhibition (IC50) in test [5] stood at 19 µM.

Take `COc1c(Cl)cc(-c2cccc(C[C@H](NC(=O)c3cc(-c4ccc(C)o4)[nH]n3)C(=O)O)c2)cc1Cl`: the result in test [4] was Active. For the same compound, in test [5], the IC50 was determined as 0.13 µM.

For the compound `Cc1ccc(NC(=O)NCC#Cc2ccc(C[C@@H](NC(=O)c3nn(C)c(C)c3Br)C(=O)O)cc2)cc1`, in [4], the outcome was Active. In addition, the half-maximal inhibitory concentration (IC50) in [5] was over 20 µM.

As for `CC(C)(C)OC(=O)n1c(-c2ccccc2C[C@@H](NC(=O)c2cnc3ccccn3c2=O)C(=O)O)cc2c(Cl)cccc21`, in test [4], the outcome was Active. For the same compound, in test [5], the IC50 came to 13 µM.

On to `Cc1cc(NC(=O)[C@H](CCC(=O)NCC(=O)N[C@@H](CCCCN)C(N)=O)NC(=O)CC(C)(C)CC(N)=O)ccc1Br`, for which the IC50 in [5] is over 20 µM.

As to `Cc1cc(-c2cnccn2)ccc1NC(=O)[C@@H](CCC(N)=O)n1cc(CNC(=O)c2ccc3ncn(CC(=O)c4ccc(O)c(O)c4)c3c2)nn1`, in test [4], the outcome was Active. In addition, the IC50 in [5] was 2.4 µM.

With `Cc1ccc2c(c1)NC(=O)C2CC(=O)N[C@@H](Cc1ccc(-c2ccc(Cl)cc2C(F)(F)F)cc1)C(=O)O` (stereo partly drawn), the outcome in test [4] was Active. Further, the IC50 in [5] was 0.24 µM.

One may read the IC50 as the concentration that inhibits the measured activity by half.
